Data as given in PubChem BioAssay AID2060908 (Molecular Pharmacology Branch, DTP, NCI, 2025).

System: 186277-243-T-J2-PDC complex spheroids, viability
Test: Anticancer human tumor 186277-243-T-J2-PDC patient-derived colon adenocarcinoma cell line growth inhibition [RAS]
Conditions: for IC50: curve of first compound; for viability, T/C: stronger effect = lower value; active = viability on the fitted dose curve at most 10% of control; inactive = the rest
Procedure, shortened: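 Tumour cells grown as complex spheroids with HUVEC endothelial cells and mesenchymal stem cells, treated with RAS pathway inhibitor combinations. Each agent spans half-log steps from near clinical Cmax, or 10 microM where Cmax is unknown.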

[1] = second compound 0.00316 µM, first compound 0.0316 µM
[2] = second compound 0.00316 µM, first compound 0.1 µM
[3] = second compound 0.00316 µM, first compound 0.316 µM
[4] = second compound 0.00316 µM, first compound 1 µM
[5] = second compound 0.00316 µM, first compound 3.16 µM
[6] = second compound 0.00316 µM, first compound 10 µM
[7] = second compound 0.01 µM, first compound 0.0316 µM
[8] = second compound 0.01 µM, first compound 0.1 µM
[9] = second compound 0.01 µM, first compound 0.316 µM
[10] = second compound 0.01 µM, first compound 1 µM
[11] = second compound 0.01 µM, first compound 3.16 µM
[12] = second compound 0.01 µM, first compound 10 µM
[13] = second compound 0.0316 µM, first compound 0.0316 µM
[14] = second compound 0.0316 µM, first compound 0.1 µM
[15] = second compound 0.0316 µM, first compound 0.316 µM
[16] = second compound 0.0316 µM, first compound 1 µM
[17] = second compound 0.0316 µM, first compound 3.16 µM
[18] = second compound 0.0316 µM, first compound 10 µM
[19] = second compound 0.1 µM, first compound 0.0316 µM
[20] = second compound 0.1 µM, first compound 0.1 µM
[21] = second compound 0.1 µM, first compound 0.316 µM
[22] = second compound 0.1 µM, first compound 1 µM
[23] = second compound 0.1 µM, first compound 3.16 µM
[24] = second compound 0.1 µM, first compound 10 µM
[25] = second compound 0.316 µM, first compound 0.0316 µM
[26] = second compound 0.316 µM, first compound 0.1 µM
[27] = second compound 0.316 µM, first compound 0.316 µM
[28] = second compound 0.316 µM, first compound 1 µM
[29] = second compound 0.316 µM, first compound 3.16 µM
[30] = second compound 0.316 µM, first compound 10 µM
[31] = second compound 1 µM, first compound 0.0316 µM
[32] = second compound 1 µM, first compound 0.1 µM
[33] = second compound 1 µM, first compound 0.316 µM
[34] = second compound 1 µM, first compound 1 µM
[35] = second compound 1 µM, first compound 3.16 µM
[36] = second compound 1 µM, first compound 10 µM
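Note: spheroids exposed to compounds for 7 days before viability read.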

CC1(O)CCCC1n1c(=O)c(C(F)F)cc2cnc(NC3CCN(S(C)(=O)=O)CC3)nc21 (stereo unspecified) + C=CC(=O)N1CCN(c2nc(OCC3CCCN3C)nc3c(F)c(-c4nc(N)cc(C)c4C(F)(F)F)c(Cl)cc23)C(C)C1
5150 nM: IC50 (second compound 0.1 µM)
4050 nM: IC50 (second compound 0.00316 µM)
inactive: viability, T/C [1] 95.5% | viability, T/C [2] 113% | viability, T/C [3] 101% | viability, T/C [4] 99.3% | viability, T/C [5] 63% | viability, T/C [7] 92.8% | viability, T/C [8] 96.8% | viability, T/C [9] 93.5% | viability, T/C [10] 96.8% | viability, T/C [11] 79.3% | viability, T/C [13] 101% | viability, T/C [14] 135% | viability, T/C [15] 87.8% | viability, T/C [16] 107% | viability, T/C [17] 77.5% | viability, T/C [19] 95.3% | viability, T/C [20] 109% | viability, T/C [21] 105% | viability, T/C [22] 89.9% | viability, T/C [23] 87% | viability, T/C [25] 91.3% | viability, T/C [26] 118% | viability, T/C [27] 88.1% | viability, T/C [28] 84.1% | viability, T/C [29] 81.8% | viability, T/C [31] 117% | viability, T/C [32] 123% | viability, T/C [33] 94.9% | viability, T/C [34] 115% | viability, T/C [35] 80.7%
4830 nM: IC50 (second compound 0.316 µM)
active: viability, T/C [6] 2.71% | viability, T/C [12] 2.97% | viability, T/C [18] 2.9% | viability, T/C [24] 2.79% | viability, T/C [30] 2% | viability, T/C [36] 1.52%
4810 nM: IC50 (second compound 0.0316 µM)
4940 nM: IC50 (second compound 1 µM)
4920 nM: IC50 (second compound 0.01 µM)

CCC(CC)c1cc(NC2CCC(N)C2)n2nccc2n1 (stereo unspecified) + C=CC(=O)N1CCN(c2nc(OCC3CCCN3C)nc3c(F)c(-c4nc(N)cc(C)c4C(F)(F)F)c(Cl)cc23)C(C)C1
1600 nM: IC50 (second compound 1 µM)
active: viability, T/C [5] 7.95% | viability, T/C [6] 0.31% | viability, T/C [11] 7.63% | viability, T/C [12] 0.49% | viability, T/C [17] 5.08% | viability, T/C [18] 0.32% | viability, T/C [23] 3.18% | viability, T/C [24] 0.31% | viability, T/C [29] 2.74% | viability, T/C [30] 0.35% | viability, T/C [35] 2.87% | viability, T/C [36] 0.37%
1800 nM: IC50 (second compound 0.0316 µM)
inactive: viability, T/C [1] 91.8% | viability, T/C [2] 97.2% | viability, T/C [3] 89.5% | viability, T/C [4] 117% | viability, T/C [7] 78% | viability, T/C [8] 103% | viability, T/C [9] 76.2% | viability, T/C [10] 84.2% | viability, T/C [13] 86.4% | viability, T/C [14] 93.5% | viability, T/C [15] 93.8% | viability, T/C [16] 115% | viability, T/C [19] 93% | viability, T/C [20] 102% | viability, T/C [21] 77.5% | viability, T/C [22] 79% | viability, T/C [25] 81% | viability, T/C [26] 94.3% | viability, T/C [27] 117% | viability, T/C [28] 109% | viability, T/C [31] 102% | viability, T/C [32] 91.8% | viability, T/C [33] 101% | viability, T/C [34] 82.9%
1670 nM: IC50 (second compound 0.01 µM)
1860 nM: IC50 (second compound 0.00316 µM)
1810 nM: IC50 (second compound 0.316 µM)
1550 nM: IC50 (second compound 0.1 µM)

CCN1CCN(Cc2ccc(Nc3ncc(F)c(-c4cc(F)c5nc(C)n(C(C)C)c5c4)n3)nc2)CC1 + C=CC(=O)N1CCN(c2nc(OCC3CCCN3C)nc3c(F)c(-c4nc(N)cc(C)c4C(F)(F)F)c(Cl)cc23)C(C)C1
inactive: viability, T/C (second compound 0.00316 µM, first compound 0.00316 µM) 136% | viability, T/C (second compound 0.00316 µM, first compound 0.01 µM) 129% | viability, T/C [1] 141% | viability, T/C [2] 114% | viability, T/C [3] 125% | viability, T/C [4] 99.5% | viability, T/C (second compound 0.01 µM, first compound 0.00316 µM) 87.9% | viability, T/C (second compound 0.01 µM, first compound 0.01 µM) 108% | viability, T/C [7] 127% | viability, T/C [8] 99.7% | viability, T/C [9] 121% | viability, T/C [10] 92.9% | viability, T/C (second compound 0.0316 µM, first compound 0.00316 µM) 94.6% | viability, T/C (second compound 0.0316 µM, first compound 0.01 µM) 107% | viability, T/C [13] 119% | viability, T/C [14] 154% | viability, T/C [15] 114% | viability, T/C [16] 101% | viability, T/C (second compound 0.1 µM, first compound 0.00316 µM) 101% | viability, T/C (second compound 0.1 µM, first compound 0.01 µM) 112% | viability, T/C [19] 142% | viability, T/C [20] 149% | viability, T/C [21] 138% | viability, T/C [22] 79.3% | viability, T/C (second compound 0.316 µM, first compound 0.00316 µM) 90.3% | viability, T/C (second compound 0.316 µM, first compound 0.01 µM) 106% | viability, T/C [25] 117% | viability, T/C [26] 115% | viability, T/C [27] 152% | viability, T/C [28] 97.8% | viability, T/C (second compound 1 µM, first compound 0.00316 µM) 117% | viability, T/C (second compound 1 µM, first compound 0.01 µM) 112% | viability, T/C [31] 122% | viability, T/C [32] 140% | viability, T/C [33] 135% | viability, T/C [34] 105%
> 1000 nM: IC50 (second compound 0.00316 µM) | IC50 (second compound 0.01 µM) | IC50 (second compound 0.0316 µM) | IC50 (second compound 0.1 µM) | IC50 (second compound 0.316 µM) | IC50 (second compound 1 µM)
